One assay has as its system RS4; 11Bcl-2-G101V cells. Nature of the assay: CellTiter-Glo (CTG) cell viability assay in RS4;11-Bcl-2-G101V cells. The format is cell-based. Conditions: 72 h, 10% FBS, 3 days. As to the method: RS4; 11Bcl-2-G101V, RS4; 11Bcl-2-D103E, RS4; 11Bcl-2-V156D and RS4; 11Bcl-2-G101V-D103E cells were obtained from Cobioer Biosciences. Cells were maintained in the RPMI-1640 medium with 10% FBS, 1% P/S and puromycin (1 μg/mL) at 37° C. and an atmosphere of 5% CO2.
• The effect of representative Compounds of the Disclosure on cell viability was determined using CellTiter-Glo® (CTG) luminescent cell viability assay (Promega, USA) according to the manufacturer's instructions. 95 μL of cell suspension (10000 cells/well) in culture medium were seeded into 96-well plates and cultured 4 hours. Each tested compound was serially diluted in blank culture medium, and 5 μL of the compound dilution was added to the corresponding well of the cell plate. After the addition of the tested compound, the cells were incubated at 37° C. in an atmosphere of 5% CO2 for 3 days. At the end of 3 days, 30 μL of CTG solution was added to each well of the plate and mix contents for 2 minutes on an orbital shaker. Allow the plate to incubate at room temperature for 15 mins to stabilize signal and record RLU on the Biotek plate reader. The readings were normalized to the vehicle cells, and the IC50 was calculated using GraphPad Prism 8 software.
A general note: ATP-based viability assays read luminescence as a measure of living cells.

Another assay has as its system MV-4-11 cells. Kind of assay: CCK-8 cell viability assay in MV-4-11 cells. The format is cell-based. As to conditions: Homo sapiens, MV4-11, 72 h, 10% FBS, 3 days. As to the method:
MV-4-11 cells were obtained from University of Michigan. Cells were maintained in the RPMI-1640 medium with 10% FBS and 1% P/S at 37° C. and an atmosphere of 5% CO2.
• The effect of representative Compounds of the Disclosure on cell viability was determined using Cell Counting Kit-8 (CCK-8) assay (Shanghai Life iLab Biotech) according to the manufacturer's instructions. Each tested compound was serially diluted in culture medium, and 100 μL of the compound dilution was added to the corresponding well of the cell plate. 100 μL of MV-4-11 cell suspension (20000 cells/well) in culture medium were seeded into 96-well plates. The cells were incubated at 37° C. in an atmosphere of 5% CO2 for 3 days. At the end of 3 days, 20 μL of CCK-8 solution was added to each well of the plate and incubated for 1-4 hours. The plates were read at 450 nm on the Biotek plate reader. The readings were normalized to the vehicle cells, and the IC50 was calculated using GraphPad Prism 8 software.
A general note: Tetrazolium assays rely on reduction of a dye to a coloured formazan, in cell work by metabolically active cells.

The next assay addresses Bcl-2 WT (Homo sapiens, UniProt P10415). Kind of assay: Bcl-2 WT inhibition, fluorescence polarization (Flu-BIM tracer) binding assay. Conditions: FP; 20 nM Bcl2, 5 nM Flu-BIM, 1 h incubation; read-out: Bcl-2 w.t. (FP).

The source of these data is US12577245B2, “Sulfonyl benzamide derivatives as Bcl-2 inhibitors” (ASCENTAGE PHARMA (SUZHOU) CO., LTD., priority 2021, dated 2026).

Chain of Bcl-2 WT (P10415 whole entry): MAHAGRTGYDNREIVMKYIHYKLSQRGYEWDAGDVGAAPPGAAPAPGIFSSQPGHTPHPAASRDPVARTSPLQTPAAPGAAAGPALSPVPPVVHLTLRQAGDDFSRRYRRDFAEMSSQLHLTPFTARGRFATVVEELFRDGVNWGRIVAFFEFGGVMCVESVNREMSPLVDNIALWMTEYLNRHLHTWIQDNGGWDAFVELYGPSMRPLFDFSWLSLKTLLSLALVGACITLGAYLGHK

`Cc1sccc1C1=C(CN2CCN(c3ccc(C(=O)NS(=O)(=O)c4ccc(NCC5CCOCC5)c([N+](=O)[O-])c4)c(Oc4cnc5[nH]ccc5c4)c3)CC2)CCC(C)(C)C1` [Example 1, 2-((1H-pyrrolo[2,3-b]pyridin-5-yl)oxy)-4-(4-((4,4-dimethyl-2-(2-methylthiophen-3-yl)cyclohex-1-en-1-yl)methyl)piperazin-1-yl)-N-((3-nitro-4-(((tetrahydro-2H-pyran-4-yl)methyl)amino)phenyl)sulfonyl)benzamide]: the IC50 in the assay on RS4; 11Bcl-2-G101V cells turned out to be 1170 nM; with MV-4-11 cells it was 27 nM; at Bcl-2 WT it was 15.7 nM.
The like results for `Cc1cscc1C1=C(CN2CCN(c3ccc(C(=O)NS(=O)(=O)c4ccc(NCC5CCOCC5)c([N+](=O)[O-])c4)c(Oc4cnc5[nH]ccc5c4)c3)CC2)CCC(C)(C)C1` [Example 2, 2-((1H-pyrrolo[2,3-b]pyridin-5-yl)oxy)-4-(4-((4,4-dimethyl-2-(4-methylthiophen-3-yl)cyclohex-1-en-1-yl)methyl)piperazin-1-yl)-N-((3-nitro-4-(((tetrahydro-2H-pyran-4-yl)methyl)amino)phenyl)sulfonyl)benzamide] were, in that order, 1300 nM, 28 nM and 15.9 nM.
Turning to `CC1(C)CCC(CN2CCN(c3ccc(C(=O)NS(=O)(=O)c4ccc(NCC5CCOCC5)c([N+](=O)[O-])c4)c(Oc4cnc5[nH]ccc5c4)c3)CC2)=C(c2csc(C(F)(F)F)c2)C1` [Example 3, 2-((1H-pyrrolo[2,3-b]pyridin-5-yl)oxy)-4-(4-((4,4-dimethyl-2-(5-(trifluoromethyl)thiophen-3-yl)cyclohex-1-en-1-yl)methyl)piperazin-1-yl)-N-((3-nitro-4-(((tetrahydro-2H-pyran-4-yl)methyl)amino)phenyl)sulfonyl)benzamide], the IC50 was 3800 nM with RS4; 11Bcl-2-G101V cells, 214 nM in the assay on MV-4-11 cells and 27.7 nM on Bcl-2 WT.
Regarding `Cc1ccc(C2=C(CN3CCN(c4ccc(C(=O)NS(=O)(=O)c5ccc(NCC6CCOCC6)c([N+](=O)[O-])c5)c(Oc5cnc6[nH]ccc6c5)c4)CC3)CCC(C)(C)C2)s1` [Example 6, 2-((1H-pyrrolo[2,3-b]pyridin-5-yl)oxy)-4-(4-((4,4-dimethyl-2-(5-methylthiophen-2-yl)cyclohex-1-en-1-yl)methyl)piperazin-1-yl)-N-((3-nitro-4-(((tetrahydro-2H-pyran-4-yl)methyl)amino)phenyl)sulfonyl)benzamide], the IC50 with RS4; 11Bcl-2-G101V cells was found to be 3940 nM; in the assay with MV-4-11 cells it was 66 nM; on Bcl-2 WT it was 16.2 nM.
The corresponding values for `CC(C)c1csc(C2=C(CN3CCN(c4ccc(C(=O)NS(=O)(=O)c5ccc(NCC6CCOCC6)c([N+](=O)[O-])c5)c(Oc5cnc6[nH]ccc6c5)c4)CC3)CCC(C)(C)C2)c1` [Example 8, 2-((1H-pyrrolo[2,3-b]pyridin-5-yl)oxy)-4-(4-((2-(4-isopropylthiophen-2-yl)-4,4-dimethylcyclohex-1-en-1-yl)methyl)piperazin-1-yl)-N-((3-nitro-4-(((tetrahydro-2H-pyran-4-yl)methyl)amino)phenyl)sulfonyl)benzamide] are 1440 nM, 21 nM and 17.7 nM.
The like results for `CC(C)c1csc(C2=C(CN3CCN(c4ccc(C(=O)NS(=O)(=O)c5ccc(NC[C@H]6COCCO6)c([N+](=O)[O-])c5)c(Oc5cnc6[nH]ccc6c5)c4)CC3)CCC(C)(C)C2)c1` [Example 10, (S)—N-((4-(((1,4-dioxan-2-yl)methyl)amino)-3-nitrophenyl)sulfonyl)-2-((1H-pyrrolo[2,3-b]pyridin-5-yl)oxy)-4-(4-((2-(4-isopropylthiophen-2-yl)-4,4-dimethylcyclohex-1-en-1-yl)methyl)piperazin-1-yl)benzamide] were, in that order, 1040 nM, 16 nM and 20.3 nM.
Take `CC(C)c1sccc1C1=C(CN2CCN(c3ccc(C(=O)NS(=O)(=O)c4ccc(NCC5CCOCC5)c([N+](=O)[O-])c4)c(Oc4cnc5[nH]ccc5c4)c3)CC2)CCC(C)(C)C1` [Example 11, 2-((1H-pyrrolo[2,3-b]pyridin-5-yl)oxy)-4-(4-((2-(2-isopropylthiophen-3-yl)-4,4-dimethylcyclohex-1-en-1-yl)-methyl)piperazin-1-yl)-N-((3-nitro-4-(((tetrahydro-2H-pyran-4-yl)methyl)amino)-phenyl)sulfonyl)benzamide]: the results for the IC50 in the assay on RS4; 11Bcl-2-G101V cells, with MV-4-11 cells and at Bcl-2 WT were 2360 nM, 54 nM and 20.9 nM, respectively.
The like results for `CC1(C)CCC(CN2CCN(c3ccc(C(=O)NS(=O)(=O)c4ccc(NC[C@H]5COCCO5)c([N+](=O)[O-])c4)c(Oc4cnc5[nH]ccc5c4)c3)CC2)=C(c2cc3c(s2)CCN(c2ccc(F)cc2)C3)C1` [Example 15, (S)—N-((4-(((1,4-dioxan-2-yl)methyl)amino)-3-nitrophenyl)sulfonyl)-2-((1H-pyrrolo[2,3-b]pyridin-5-yl)oxy)-4-(4-((2-(5-(4-fluorophenyl)-4,5,6,7-tetrahydrothieno[3,2-c]pyridin-2-yl)-4,4-dimethylcyclohex-1-en-1-yl)methyl)piperazin-1-yl)benzamide] were, in that order, 8810 nM, 466 nM and 27.6 nM.
The like results for `CC1(C)CCC(CN2CCN(c3ccc(C(=O)NS(=O)(=O)c4ccc(NC[C@H]5CC[C@](C)(O)CC5)c([N+](=O)[O-])c4)c(Oc4cnc5[nH]ccc5c4)c3)CC2)=C(c2cc3c(s2)CCN(c2ccc(F)cc2)C3)C1` [Example 16, 2-((1H-pyrrolo[2,3-b]pyridin-5-yl)oxy)-4-(4-((2-(5-(4-fluorophenyl)-4,5,6,7-tetrahydrothieno[3,2-c]pyridin-2-yl)-4,4-dimethylcyclohex-1-en-1-yl)methyl)piperazin-1-yl)-N-((4-((((1r,4r)-4-hydroxy-4-methylcyclohexyl)methyl)amino)-3-nitrophenyl)sulfonyl)benzamide] were, in that order, 5630 nM, 445 nM and 42 nM.
Turning to `CC1(C)CCC(CN2CCN(c3ccc(C(=O)NS(=O)(=O)c4ccc(NC[C@H]5CC[C@](C)(O)CC5)c([N+](=O)[O-])c4)c(Oc4cnc5[nH]ccc5c4)c3)CC2)=C(c2cc(-c3c(Cl)cc(C(C)(C)O)cc3Cl)cs2)C1` [Example 66, 2-((1H-pyrrolo[2,3-b]pyridin-5-yl)oxy)-4-(4-((2-(4-(2,6-dichloro-4-(2-hydroxypropan-2-yl)phenyl)thiophen-2-yl)-4,4-dimethylcyclohex-1-en-1-yl)methyl)piperazin-1-yl)-N-((4-((((1r,4r)-4-hydroxy-4-methylcyclohexyl)methyl)amino)-3-nitrophenyl)sulfonyl)benzamide], the IC50 with RS4; 11Bcl-2-G101V cells was found to be 361 nM; in the assay with MV-4-11 cells it was 132 nM.
For the molecule `COC(C)(C)c1ccc(-c2csc(C3=C(CN4CCN(c5ccc(C(=O)NS(=O)(=O)c6ccc(NC[C@H]7CC[C@](C)(O)CC7)c([N+](=O)[O-])c6)c(Oc6cnc7[nH]ccc7c6)c5)CC4)CCC(C)(C)C3)c2)c(F)c1` [Example 76, 2-((1H-pyrrolo[2,3-b]pyridin-5-yl)oxy)-4-(4-((2-(4-(2-fluoro-4-(2-methoxypropan-2-yl)phenyl)thiophen-2-yl)-4,4-dimethylcyclohex-1-en-1-yl)methyl)piperazin-1-yl)-N-((4-((((1r,4r)-4-hydroxy-4-methylcyclohexyl)methyl)amino)-3-nitrophenyl)sulfonyl)benzamide], the IC50 with RS4; 11Bcl-2-G101V cells is 1700 nM; with MV-4-11 cells it was 95 nM.
The corresponding values for `CC1(C)CCC(CN2CCN(c3ccc(C(=O)NS(=O)(=O)c4ccc(NC[C@H]5CC[C@](C)(O)CC5)c([N+](=O)[O-])c4)c(Oc4cnc5[nH]ccc5c4)c3)CC2)=C(c2cc(-c3c(F)cc(C4(O)CCC4)cc3F)cs2)C1` [Example 77, 2-((1H-pyrrolo[2,3-b]pyridin-5-yl)oxy)-4-(4-((2-(4-(2,6-difluoro-4-(1-hydroxycyclobutyl)phenyl)thiophen-2-yl)-4,4-dimethylcyclohex-1-en-1-yl)methyl)piperazin-1-yl)-N-((4-((((1r,4r)-4-hydroxy-4-methylcyclohexyl)methyl)amino)-3-nitrophenyl)sulfonyl)benzamide] are 490 nM and 25 nM.
